According to patent publication EP0384594A1, “Anti-inflammatory aryl derivatives” (THE WELLCOME FOUNDATION LIMITED, priority 1989, dated 1990):
Read-outs that look alike come from different tables or passages of the source.

Tests used:
[1] = tested on: 5-lipoxygenase; experiment: Ex vivo inhibition of 5-lipoxygenase (stimulated LTB4 synthesis in blood after dosing), rabbits; conditions: for inhibition of the stimulated ex vivo synthesis of leukotriene B₄ (LTB₄), result in words: rabbits, preliminary studies
Method: After administration of the test compound, the concentration of LTB₄ in the plasma was measured periodically and expressed as a percentage of the mean control value. The procedure used is described in Br. J. Pharmacol. 94, 528 (1988) and may be summarised as follows. Within 2 minutes of collection, duplicate samples (0.5ml) of blood were stimulated with the calcium ionophore A23187 (final concentration 15µg/ml) for 30 minutes at 37 °C. When incubation was complete, the samples were centrifuged (12,000G for 2 minutes) and the cell-free plasma removed. The plasma concentration of LTB₄ was then determined by specific radioimmunoassay. The compounds of Synthetic Examples 1 to 3 all inhibited the stimulated ex vivo synthesis of LTB₄ for several hours after their administration. The compound of Synthetic Example 1, for example, when administered orally to rabbits at a dose of 2mg/kg inhibited LTB₄ synthesis by more than 50% for a period of greater than 16 hours. The same compound when administered orally to rats at a dose of 10mg/kg inhibited LTB₄ synthesis by more than 50% for longer than 10 hours.

[2] = molecular target: T1, 5-lipoxygenase (Homo sapiens, UniProt P09917); experiment: In vitro inhibition of 5-lipoxygenase, ionophore-stimulated whole human blood; format: cell-based; conditions: read-out: IC₅₀ Whole blood
T1 construct: The experiment was repeated using ionophore-stimulated whole human blood; endogenous in cells; host or cells: whole human blood (blood leukocytes)
T1 sequence (P09917 1-674): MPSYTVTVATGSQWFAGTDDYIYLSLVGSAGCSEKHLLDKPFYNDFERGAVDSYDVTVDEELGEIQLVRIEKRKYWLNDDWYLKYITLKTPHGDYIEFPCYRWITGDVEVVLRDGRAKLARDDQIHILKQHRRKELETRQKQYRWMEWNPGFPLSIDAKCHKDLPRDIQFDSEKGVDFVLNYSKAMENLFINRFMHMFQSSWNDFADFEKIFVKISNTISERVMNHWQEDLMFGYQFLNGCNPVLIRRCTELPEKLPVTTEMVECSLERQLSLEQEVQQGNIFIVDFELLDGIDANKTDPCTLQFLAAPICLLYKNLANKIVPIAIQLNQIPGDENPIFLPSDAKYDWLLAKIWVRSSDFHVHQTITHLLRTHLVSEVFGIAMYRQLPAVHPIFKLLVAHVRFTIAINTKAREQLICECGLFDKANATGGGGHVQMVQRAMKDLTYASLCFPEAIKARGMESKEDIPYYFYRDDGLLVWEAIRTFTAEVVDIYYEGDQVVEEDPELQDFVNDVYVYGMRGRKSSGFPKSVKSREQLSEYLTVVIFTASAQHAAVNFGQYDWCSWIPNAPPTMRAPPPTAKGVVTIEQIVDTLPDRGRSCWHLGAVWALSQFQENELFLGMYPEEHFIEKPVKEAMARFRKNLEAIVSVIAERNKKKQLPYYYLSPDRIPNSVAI
Method: Blood from normal aspirin-free volunteers was centrifuged to separate leukocytes from red cells and platelets. A solution of the test compound in DMSO (10µl, final concentration in the range 0.01 - 100µM) was added to cell homogenate (470µl) and the mixture incubated at 37 °C for 5 minutes. Solutions of arachidonic acid in methanol (250µM, 10µl, final concentration 5µM) and calcium chloride in water (100mM, 10µl, final concentration 2mM) were then added simultaneously and the mixture incubated at 37 °C for a further 5 minutes. The reaction was stopped by boiling. Radioimmunoassay was conducted for leukotriene B₄.
The experiment was repeated using ionophore-stimulated whole human blood.

[3] = molecular target: T2, 5-lipoxygenase (Rattus norvegicus, UniProt P12527); experiment: Ex vivo inhibition of 5-lipoxygenase (stimulated LTB4 synthesis in blood after dosing), rats; conditions: po, administered orally to rats, ex vivo A23187-stimulated blood, read-out: inhibited LTB₄ synthesis
T2 construct: endogenous in cells; host or cells: whole blood of dosed rats (blood leukocytes)
T2 sequence (P12527 1-673): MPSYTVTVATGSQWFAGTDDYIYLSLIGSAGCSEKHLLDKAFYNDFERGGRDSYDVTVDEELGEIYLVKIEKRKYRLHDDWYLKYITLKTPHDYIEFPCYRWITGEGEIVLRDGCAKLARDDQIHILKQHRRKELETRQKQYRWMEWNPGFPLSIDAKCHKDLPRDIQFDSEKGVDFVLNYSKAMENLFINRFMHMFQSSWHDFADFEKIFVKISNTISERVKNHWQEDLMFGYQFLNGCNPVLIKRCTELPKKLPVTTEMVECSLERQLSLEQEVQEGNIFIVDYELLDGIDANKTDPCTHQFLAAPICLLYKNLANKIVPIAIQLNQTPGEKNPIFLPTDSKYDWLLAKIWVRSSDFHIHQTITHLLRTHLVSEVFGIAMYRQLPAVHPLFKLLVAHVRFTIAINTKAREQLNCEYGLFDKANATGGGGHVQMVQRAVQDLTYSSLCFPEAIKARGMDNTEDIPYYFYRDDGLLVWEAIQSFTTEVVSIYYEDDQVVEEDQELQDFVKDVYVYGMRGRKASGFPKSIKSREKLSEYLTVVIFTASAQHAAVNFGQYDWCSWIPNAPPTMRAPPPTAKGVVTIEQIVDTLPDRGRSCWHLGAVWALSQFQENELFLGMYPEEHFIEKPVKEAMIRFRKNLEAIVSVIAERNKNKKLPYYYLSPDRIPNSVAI
Method: After administration of the test compound, the concentration of LTB₄ in the plasma was measured periodically and expressed as a percentage of the mean control value. The procedure used is described in Br. J. Pharmacol. 94, 528 (1988) and may be summarised as follows.
Within 2 minutes of collection, duplicate samples (0.5ml) of blood were stimulated with the calcium ionophore A23187 (final concentration 15µg/ml) for 30 minutes at 37 °C. When incubation was complete, the samples were centrifuged (12,000G for 2 minutes) and the cell-free plasma removed. The plasma concentration of LTB₄ was then determined by specific radioimmunoassay.
The compounds of Synthetic Examples 1 to 3 all inhibited the stimulated ex vivo synthesis of LTB₄ for several hours after their administration. The compound of Synthetic Example 1, for example, when administered orally to rabbits at a dose of 2mg/kg inhibited LTB₄ synthesis by more than 50% for a period of greater than 16 hours. The same compound when administered orally to rats at a dose of 10mg/kg inhibited LTB₄ synthesis by more than 50% for longer than 10 hours.

[4] = tested on: mice; format: in vivo
Method: The compound of Synthetic Example 1 was administered to mice per orally at doses of up to 300mg/kg and intraperitoneally at doses of up to 100mg/kg.

[5] = Anti-oxidant activity: peroxyl radical scavenging, inhibition of peroxidation of linoleic acid
Method: As a measure of anti-oxidant activity, the peroxyl radical scavenging abilities of the compounds of the invention were determined by testing each compound's ability to inhibit the peroxidation of linoleic acid using the method described in Biochem. Pharm. 38, 1465 (1989).

[6] = tested on: Male New Zealand White rabbits; experiment: Combination effects with an NSAID: antigen (ovalbumin)-induced arthritis of the knee joint in rabbits; format: in vivo; conditions: for proteoglycan loss from the cartilage, result in words / PROTEOGLYCAN LOSS: 14 days after antigen challenge; for mean leukocyte infiltrate in the synovial fluid, result in words / LEUKOCYTES (CELL NUMBER x 10⁶): 14 days after challenge; for PROTEOGLYCAN LOSS: articular cartilage of arthritic joint versus contralateral joint; for JOINT SWELLING: oral x3/24h: compound A 2mg/kg, indomethacin 1mg/kg; for reduced swelling compared to the vehicle-treated controls: from day 3 onwards, maximum reduction; for Lymphocytes / Total cells: histological evaluation of synovial lining; for LEUKOCYTES (CELL NUMBER x 10⁶): synovial fluid of arthritic joint
Method: Male New Zealand White rabbits (2.5 - 3kg) were immunised with intradermal injections of 4mg of ovalbumin in 1ml of Freund's complete adjuvant. Animals were reimmunised 14 days later in the same way. Five days after the second immunisation, arthritis was induced in the right knee joint by injecting 1ml of a sterile solution of ovalbumin (5mg/ml) into the joint cavity. Joint diameters were measured (on a randomised blind basis) with calipers at frequent intervals after antigen challenge. Animals were killed after 14 days and the joint space was washed with 1ml of saline and the resultant fluid was taken for total and differential leukocyte counts. Sensitised animals were randomly allocated to groups of 5-8. The compound of Synthetic Example 1, (E)-N-{1-Methyl-3-[3-(4-fluorophenoxy)phenyl]prop-2-en-1-yl}-N-hydroxyurea (compound A), was administered in suspension following 18h ball-milling in 0.25% Celacol as vehicle. The non-steroidal anti-inflammatory indomethacin was dissolved in a small volume of 1M Tris buffer pH8 and then made up to volume with 0.25% Celacol. Control animals received 0.25% Celacol. Each animal received an oral dose (approximately 5ml) of vehicle or drug 3 times every 24h. Doses were administered at 8.0am, 4.0pm and 12 midnight for 16-17 days commencing 1h before antigen challenge on day 0. All doses were given orally by stomach tube. The groups were as follows: 1-7: Controls (5ml 0.25% Celacol x3/24h) 8-14: 1mg/kg indomethacin dissolved in 0.25% Celacol x3/24h 15-21: 2mg/kg compound A suspended in 0.25% Celacol x3/24h 22-28: 2mg/kg compound A suspended in 0.25% Celacol plus 1mg/kg indomethacin dissolved in 0.25% Celacol Synovial lining tissue was removed from the joint, fixed, processed, cut and stained for microscopic examination. Histological scores were derived for the total mass of inflamed synovial lining, lymphocyte infiltration and polymorph content. The slides were read on a randomised blind basis. Articular cartilage was dissected from the ends of the femurs and digested with papain prior to measurement of the concentration of sulphated glycosaminoglycans (GAGs). The proteoglycan content was expressed as µg GAG/mg wet weight of cartilage and compared with values obtained with cartilage from the contralateral control joint.

[7] = duration of arthritis 14 (days)

IC50 [2] | SMILES | period for which LTB₄ synthesis was inhibited by more than 50% ([1]; administered orally to rabbits, 2mg/kg) | inhibited LTB₄ synthesis ([1]; administered orally to rabbits, 2mg/kg, ex vivo A23187-stimulated blood) | inhibition of the stimulated ex vivo synthesis of leukotriene B₄ (LTB₄), result in words [1] | inhibition at 10 mg/kg [3] | deaths or serious deleterious effects ([4]; intraperitoneally, doses of up to 100mg/kg) | deaths or serious deleterious effects ([4]; per orally, doses of up to 300mg/kg) | apparent rate constant (kAH) for scavenging peroxyl radicals [5] | proteoglycan loss from the cartilage, result in words [6] | mean leukocyte infiltrate in the synovial fluid, result in words [6] | PROTEOGLYCAN LOSS [6] | JOINT SWELLING ([6]; duration of arthritis 1 (day)) | JOINT SWELLING ([6]; duration of arthritis 2 (days)) | JOINT SWELLING ([6]; duration of arthritis 3 (days)) | JOINT SWELLING ([6]; duration of arthritis 8 (days)) | JOINT SWELLING [6, 7] | reduced swelling compared to the vehicle-treated controls [6] | Lymphocytes [6] | Total cells [6] | LEUKOCYTES (CELL NUMBER x 10⁶) [6]
80 nM | C[C@@H](/C=C/c1cccc(Oc2ccc(F)cc2)c1)N(O)C(N)=O [Synthetic Example 3, (E)-N-{3-[3-(4-fluorophenoxy)phenyl]-1(S)-methylprop-2-en-1-yl}-N-hydroxyurea] |  |  | effectively inhibited |  |  |  |  |  |  |  |  |  |  |  |  |  |  |  | 
 | COc1ccc2c(c1)c(CC(=O)O)c(C)n2C(=O)c1ccc(Cl)cc1 [Indomethacin, indomethacin, reference compound] |  |  |  |  |  |  |  | reduced proteoglycan loss | slightly reduced | 38% | 4.3 MM | 4.5 MM | 3.5 MM | 2.6 MM | 2.0 MM | up to 53% | 51 | 365 | 7.3 x 10⁶
80 nM | C[C@H](/C=C/c1cccc(Oc2ccc(F)cc2)c1)N(O)C(N)=O [Synthetic Example 2, (E)-N-{3-[3-(4-fluorophenoxy)phenyl]-1(R)-methylprop-2-en-1-yl}-N-hydroxyurea] |  |  | effectively inhibited |  |  |  |  |  |  |  |  |  |  |  |  |  |  |  | 

SMILES | IC50 [2] | period for which LTB₄ synthesis was inhibited by more than 50% ([1]; administered orally to rabbits, 2mg/kg) | inhibited LTB₄ synthesis ([1]; administered orally to rabbits, 2mg/kg, ex vivo A23187-stimulated blood) | inhibition of the stimulated ex vivo synthesis of leukotriene B₄ (LTB₄), result in words [1] | inhibition at 10 mg/kg [3] | deaths or serious deleterious effects ([4]; intraperitoneally, doses of up to 100mg/kg) | deaths or serious deleterious effects ([4]; per orally, doses of up to 300mg/kg) | apparent rate constant (kAH) for scavenging peroxyl radicals [5] | proteoglycan loss from the cartilage, result in words [6] | mean leukocyte infiltrate in the synovial fluid, result in words [6] | PROTEOGLYCAN LOSS [6] | JOINT SWELLING ([6]; duration of arthritis 1 (day)) | JOINT SWELLING ([6]; duration of arthritis 2 (days)) | JOINT SWELLING ([6]; duration of arthritis 3 (days)) | JOINT SWELLING ([6]; duration of arthritis 8 (days)) | JOINT SWELLING [6, 7] | reduced swelling compared to the vehicle-treated controls [6] | Lymphocytes [6] | Total cells [6] | LEUKOCYTES (CELL NUMBER x 10⁶) [6]
CC(/C=C/c1cccc(Oc2ccc(F)cc2)c1)N(O)C(N)=O (racemic) [Synthetic Example 1, (E)-N-{3-[3-(4-fluorophenoxy)phenyl]-1(R,S)-methylprop-2-en-1-yl}-N-hydroxyurea] | 150 nM | greater than 16 hours | more than 50% | effectively inhibited | > 50% | No deaths or serious deleterious effects | No deaths or serious deleterious effects | 0.408 | reduced proteoglycan loss | slightly reduced | 34% | 4.6 MM | 5.2 MM | 4.6 MM | 3.5 MM | 3.2 MM | up to 26% | 59 | 367 | 6.1 x 10⁶
